Assay results reported in patent publication US10314894B2, “Treatment of cardio-renal disease using PCSK6” (THE CLEVELAND CLINIC FOUNDATION, priority 2014, dated 2019).
Peptide text beside a SMILES is read from it.

Tested on: corin activation cleavage
Test: Protease inhibitors on corin activation cleavage in HEK293 cells expressing corin (Western blotting)
Type: cell-based, human
Conditions: 24 h, transfected HEK293 cells
Protocol: HEK293 cells were cultured in DMEM with 10% fetal bovine serum (FBS). HL-1 cardiomyocytes were cultured in Claycomb medium with 10% FBS, and 4 mM L-glutamine. All cells were cultured at 37° C. in humidified incubators with 5% CO2.
HEK293 and HL-1 cells were transfected with corin or PCSK6 expression plasmids. After 48-72 h, cells were lysed in a buffer containing 25 mM Tris-HCl, pH 7.4, 150 mM NaCl, 1 mM EDTA, 1% (v/v) NP-40, and 1% (v/v) protease inhibitor cocktail. Recombinant corin and PCSK6 proteins were immunoprecipitated with an anti-V5 or anti-flag antibody. Western blotting was carried out to analyze corin expression and activation or PCSK6 expression with or without reducing agents. Percentage of corin activation (corin-p vs. corin fragments) was quantified by densitometric analysis of Western blots.
To identify the corin activator, corin activation cleavage was examined in HEK293 and HL-1 cells expressing corin in the presence of protease inhibitors including benzamidine (5 mM), GM6001 (50 μM), dec-RVKR-cmk (20 μM), or ALLM (N-acetyl-leucyl-leucyl-methionine 50 μM). Liao et al., J Biol Chem 282, 27728-27735 (2007). The inhibitors were added to the cells in separate wells. After 24 h, cell lysates were prepared and corin protein was analyzed by Western blotting.

| SMILES | corin activation (~40-kDa band reduced, ~190-kDa zymogen band increased) (benzamidine 5 mM) | corin activation (~40-kDa band reduced, ~190-kDa zymogen band increased) (dec-RVKR-cmk 20 μM) | corin activation (~40-kDa band reduced, ~190-kDa zymogen band increased) (dec-RVKR-cmk 20 μM, listed as RVKR-cmk) |
| --- | --- | --- | --- |
| N=C(N)c1ccccc1 [benzamidine] | corin activation cleavage was inhibited |  |  |
| CCCCCCCCCC(=O)N[C@@H](CCCN=C(N)N)C(=O)N[C@H](C(=O)N[C@@H](CCCCN)C(=O)N[C@@H](CCCN=C(N)N)C(=O)CCl)C(C)C [dec-RVKR-cmk] (HELM PEPTIDE1{[CCCCCCCCCC(=O)[*:2]].R.V.K.R.[ClC[*:1]]}$$$$V2.0) |  | corin activation was inhibited | corin activation cleavage was inhibited |
